Measurements reported in the NIST ThermoML archive (doi:10.1021/acs.jced.6b00269).

Settings: for viscosity / mass density: 101.33 kPa, Liquid; for viscosity: Cone and plate viscometry; for mass density: Vibrating tube method; for Normal melting temperature: Crystal, DTA; for Glass transition temperature: DSC

CC(=O)[O-].CCCCCCCCCCCCCC[P+](CCCCCC)(CCCCCC)CCCCCC [trihexyl(tetradecyl)phosphonium acetate]
Settings	mass density [kg/m3]	viscosity [mPa·s]
278.15 K	–	1820
283.15 K	895	1200
288.15 K	891.9	814
293.15 K	888.9	566
295.15 K	887.6	–
298.15 K	885.8	406
303.15 K	882.8	298
308.15 K	879.8	224
313.15 K	876.8	172
318.15 K	873.7	135
323.15 K	870.7	107
328.15 K	867.7	–
333.15 K	864.7	–
338.15 K	861.7	–
343.15 K	858.7	–
348.15 K	855.7	–
353.15 K	852.7	–

CCCCCCCC[P+](CC)(CC)CC.O=[N+]([O-])c1cn[n-]c1 [triethyloctylphosphonium 4-nitropyrazolide]
Settings	Glass transition temperature [°C]	Normal melting temperature [°C]	mass density [kg/m3]	viscosity [mPa·s]
–	-72	5	–	–
278.15 K	–	–	–	1100
283.15 K	–	–	1040.1	716
288.15 K	–	–	1037	480
293.15 K	–	–	1033.9	333
295.15 K	–	–	1032.7	–
298.15 K	–	–	1030.9	238
303.15 K	–	–	1027.9	175
308.15 K	–	–	1024.9	133
313.15 K	–	–	1022	103
318.15 K	–	–	1019	81
323.15 K	–	–	1016.1	65
328.15 K	–	–	1013.2	53
333.15 K	–	–	1010.2	–
338.15 K	–	–	1007.3	–
343.15 K	–	–	1004.4	–
348.15 K	–	–	1001.5	–
353.15 K	–	–	998.6	–

CCCC[S+]1CCCC1.O=S(=O)([N-]S(=O)(=O)C(F)(F)F)C(F)(F)F
Settings	Glass transition temperature [°C]	mass density [kg/m3]	viscosity [mPa·s]
–	-83	–	–
278.15 K	–	–	284
283.15 K	–	1469	206
288.15 K	–	1464.3	153
293.15 K	–	1459.7	117
295.15 K	–	1457.8	–
298.15 K	–	1455	91
303.15 K	–	1450.4	73
308.15 K	–	1445.7	59
313.15 K	–	1441.1	–
318.15 K	–	1436.5	–
323.15 K	–	1431.9	–
328.15 K	–	1427.3	–
333.15 K	–	1422.7	–
338.15 K	–	1418.2	–
343.15 K	–	1413.6	–
348.15 K	–	1409.1	–
353.15 K	–	1404.6	–

CCC=C[P+](CC)(CC)CC.O=S(=O)([N-]S(=O)(=O)C(F)(F)F)C(F)(F)F
Settings	Normal melting temperature [°C]
–	49
